Test results from US20220233512A1, “INHIBITING AN IMMUNE RESPONSE MEDIATED BY ONE OR MORE OF TLR2, RAGE, CCR5, CXCR4 AND CD4” (priority 2020, published 2022).

Target: T1, FLNA-TLR2 association (Homo sapiens, UniProt P21333)
T1 construct: Human postmortem frontal cortex slices; from tissue; host or cells: human postmortem frontal cortex slices
Experiment: FLNA-TLR2 association in human postmortem frontal cortex slices
Assay type: cell-based
Conditions: 1 or 10 nM compound; LTA-SA, PGN-SA or Ab42; p<0.01
Description: As will be seen from examination of FIG. 3 and FIG. 4, the ratio of TLR2 to FLNA increased with administration of each of LTA-SA, PGN-SA and Ab42 at a statistically significant amount relative to the control (p<0.01). Those changes in expression of TLR2 relative to FLNA were each inhibited by the presence of the 1 or 10 nM Compound C0105 at a statistically significant amount relative to the control (p<0.01) and relative to the ligand used. See, FIG. 3B.
Postmortem frontal cortex tissues were gradually thawed (from −80° C. to −20° C.) and were sliced using a chilled McIlwain tissue chopper ([…]). […]
The resultant immunocomplexes were pelleted by centrifugation at 4° C. […] The content of a7nAChRs in 50% of the obtained anti-Ab42 immunoprecipitate was determined by Western blotting with monoclonal anti-a7nAChR antibodies. […]
The content of b-actin in resultant immunoprecipitates is then analyzed by immunoblotting using monoclonal anti-b-actin to illustrate even immunoprecipitation efficiency and loading. […]

T1 sequence (P21333 2-2647 limits assumed): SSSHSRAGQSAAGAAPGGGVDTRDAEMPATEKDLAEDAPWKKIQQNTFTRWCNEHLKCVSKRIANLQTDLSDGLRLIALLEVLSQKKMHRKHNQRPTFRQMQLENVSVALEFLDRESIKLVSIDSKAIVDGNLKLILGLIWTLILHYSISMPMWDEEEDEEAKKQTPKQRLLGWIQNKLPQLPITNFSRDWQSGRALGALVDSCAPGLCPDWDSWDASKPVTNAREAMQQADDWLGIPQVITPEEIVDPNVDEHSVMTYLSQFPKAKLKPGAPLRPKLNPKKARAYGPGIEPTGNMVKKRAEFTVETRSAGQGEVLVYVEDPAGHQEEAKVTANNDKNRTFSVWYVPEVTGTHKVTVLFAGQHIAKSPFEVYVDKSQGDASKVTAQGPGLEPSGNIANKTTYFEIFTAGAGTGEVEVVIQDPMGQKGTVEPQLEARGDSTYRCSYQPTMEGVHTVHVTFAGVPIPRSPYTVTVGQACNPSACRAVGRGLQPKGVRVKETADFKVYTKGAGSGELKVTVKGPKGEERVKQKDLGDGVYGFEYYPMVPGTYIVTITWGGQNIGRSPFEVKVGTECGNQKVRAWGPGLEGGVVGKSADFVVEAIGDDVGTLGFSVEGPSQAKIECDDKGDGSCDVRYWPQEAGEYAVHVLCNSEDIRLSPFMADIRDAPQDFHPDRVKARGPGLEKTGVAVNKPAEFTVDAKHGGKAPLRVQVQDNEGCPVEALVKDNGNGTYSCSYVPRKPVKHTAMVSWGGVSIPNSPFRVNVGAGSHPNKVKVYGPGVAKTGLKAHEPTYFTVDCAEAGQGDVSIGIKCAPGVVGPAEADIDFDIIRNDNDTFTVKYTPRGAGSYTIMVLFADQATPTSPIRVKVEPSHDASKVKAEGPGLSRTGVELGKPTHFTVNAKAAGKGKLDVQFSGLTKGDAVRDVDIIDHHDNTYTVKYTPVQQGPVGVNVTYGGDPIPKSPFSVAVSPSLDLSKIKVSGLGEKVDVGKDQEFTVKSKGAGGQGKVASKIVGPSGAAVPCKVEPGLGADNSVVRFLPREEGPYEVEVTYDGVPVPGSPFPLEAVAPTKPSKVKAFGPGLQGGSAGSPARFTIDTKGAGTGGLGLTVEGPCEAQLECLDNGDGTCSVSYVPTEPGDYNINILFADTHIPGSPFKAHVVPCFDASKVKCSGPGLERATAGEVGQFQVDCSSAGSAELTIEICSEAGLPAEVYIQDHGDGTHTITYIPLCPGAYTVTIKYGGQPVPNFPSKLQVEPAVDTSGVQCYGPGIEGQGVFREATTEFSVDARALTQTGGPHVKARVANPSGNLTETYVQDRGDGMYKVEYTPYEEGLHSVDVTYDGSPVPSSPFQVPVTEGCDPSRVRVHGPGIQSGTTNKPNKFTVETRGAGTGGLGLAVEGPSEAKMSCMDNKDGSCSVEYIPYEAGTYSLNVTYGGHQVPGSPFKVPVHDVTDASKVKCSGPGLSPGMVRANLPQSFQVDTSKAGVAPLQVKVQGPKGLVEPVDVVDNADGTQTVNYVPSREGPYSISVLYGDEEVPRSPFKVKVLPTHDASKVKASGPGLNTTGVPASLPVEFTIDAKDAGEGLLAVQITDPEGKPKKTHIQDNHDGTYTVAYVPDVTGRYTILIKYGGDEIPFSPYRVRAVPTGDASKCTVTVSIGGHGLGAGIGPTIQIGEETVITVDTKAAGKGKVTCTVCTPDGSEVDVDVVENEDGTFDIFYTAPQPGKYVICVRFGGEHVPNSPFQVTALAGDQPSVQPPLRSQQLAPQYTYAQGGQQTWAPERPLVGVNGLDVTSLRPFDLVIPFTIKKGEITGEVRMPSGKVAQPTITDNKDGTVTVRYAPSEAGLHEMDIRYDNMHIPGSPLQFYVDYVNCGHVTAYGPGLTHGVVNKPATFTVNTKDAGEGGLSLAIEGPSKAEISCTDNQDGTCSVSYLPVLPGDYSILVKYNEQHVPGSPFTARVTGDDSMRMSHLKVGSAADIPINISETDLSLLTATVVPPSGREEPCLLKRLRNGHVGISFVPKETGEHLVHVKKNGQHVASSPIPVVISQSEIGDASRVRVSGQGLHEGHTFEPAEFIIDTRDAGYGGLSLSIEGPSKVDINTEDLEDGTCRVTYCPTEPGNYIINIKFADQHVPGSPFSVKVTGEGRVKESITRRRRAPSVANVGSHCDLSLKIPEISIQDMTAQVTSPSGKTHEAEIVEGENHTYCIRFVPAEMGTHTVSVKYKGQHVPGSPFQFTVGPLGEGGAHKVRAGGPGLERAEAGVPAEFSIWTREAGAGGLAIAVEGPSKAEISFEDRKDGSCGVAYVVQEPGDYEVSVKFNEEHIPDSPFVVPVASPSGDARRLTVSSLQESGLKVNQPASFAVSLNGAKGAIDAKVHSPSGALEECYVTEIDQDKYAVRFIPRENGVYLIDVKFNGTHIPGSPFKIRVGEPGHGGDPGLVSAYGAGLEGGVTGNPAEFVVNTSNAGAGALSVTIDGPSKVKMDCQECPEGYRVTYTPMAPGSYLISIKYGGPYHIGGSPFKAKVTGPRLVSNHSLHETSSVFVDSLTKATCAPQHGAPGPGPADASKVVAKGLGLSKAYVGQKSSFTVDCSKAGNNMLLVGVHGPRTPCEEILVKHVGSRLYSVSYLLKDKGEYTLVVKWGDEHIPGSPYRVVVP

CN1CCC2(CC1)NCC(=O)N2Cc1ccccc1 [Compound C0105M]
Ligand-induced change in TLR2 relative to FLNA (TLR2/FLNA ratio): inhibited
